{"source": "paper PMC6934184", "about": "“Selective DNA-PKcs inhibition extends the therapeutic index of localized radiotherapy and chemotherapy” (The Journal of Clinical Investigation, 2019)", "target": "T1, PLK3 (Homo sapiens, UniProt Q9H4B4)", "T1 construct": "purchased Thermo Fisher Scientific (Life Technologies) SelectScreen", "T1 sequence (Q9H4B4 whole entry)": "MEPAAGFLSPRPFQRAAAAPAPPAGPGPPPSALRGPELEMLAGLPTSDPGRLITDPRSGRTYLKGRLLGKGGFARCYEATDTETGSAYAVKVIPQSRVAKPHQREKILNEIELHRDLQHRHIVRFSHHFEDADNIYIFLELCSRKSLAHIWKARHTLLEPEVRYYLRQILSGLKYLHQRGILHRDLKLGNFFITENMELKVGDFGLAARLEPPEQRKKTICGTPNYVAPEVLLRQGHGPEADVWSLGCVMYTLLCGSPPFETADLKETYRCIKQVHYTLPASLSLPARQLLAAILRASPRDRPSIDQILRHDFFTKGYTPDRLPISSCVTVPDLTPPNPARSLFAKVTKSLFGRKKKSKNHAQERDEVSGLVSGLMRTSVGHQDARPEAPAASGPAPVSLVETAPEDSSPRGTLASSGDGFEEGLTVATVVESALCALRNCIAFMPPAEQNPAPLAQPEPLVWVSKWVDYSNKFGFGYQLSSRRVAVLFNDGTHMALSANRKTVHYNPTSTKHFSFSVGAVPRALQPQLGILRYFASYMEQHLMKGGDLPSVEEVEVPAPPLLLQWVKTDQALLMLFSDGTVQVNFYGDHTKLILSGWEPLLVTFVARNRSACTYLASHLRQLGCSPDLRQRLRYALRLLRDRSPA", "assay": "SelectScreen Z'LYTE", "format": "biochemical", "procedure,_shortened": "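Percent values come from Thermo SelectScreen profiling of NU5455, combining activity and binding assays. CSF1R was run in Z'LYTE format at Km app ATP, and CAMK1 in Adapta format with ATP listed at 10.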", "data": [{"smiles": "CN(C(=O)CN1CCOCC1)c1ccc2sc3c(-c4cccc5c(=O)cc(N6CC7CCC(C6)O7)oc45)cccc3c2c1", "note": "[NU5455]", "values": [{"measurement": "inhibition at 1 µM", "value": -18.2, "unit": "%"}]}]}
